From publication PMC11906898 (Nature Communications, 2025) come the findings set out here.

In data set [1] the test system is seizurogenic activity.
Data set [2] has as its system seizurogenic activity. The note with it: mouse, in vivo.
Data set [3] can be described thus: in vitro. The format is in vitro ADME. Particulars: human, microsomes, pH 7.4.
In data set [4] the test system is respiration rate. The format is in vivo, C57BL6/J mice. The note with it: 30 mg/kg sc.
Data set [5] concerns spontaneous ambulation. It counts as in vivo, C57BL6/J mice. Particulars: C6-Quino 30 mg/kg s.c.; morphine 10 or 30 mg/kg s.c.

Like-named read-outs stand apart in the source and are kept apart here.

As for TAN67, in data set [1] (100 nmol i.c.v.), the “seizures after intracerebroventricular dosing” value is given as “caused robust seizures”.

As for SNC80, in data set [2], the duration of seizures turned out to be 20 min and the “seizures after sc dosing” value is “produced robust seizures”. In addition, in data set [1] (mouse, in vivo), the “seizures after intracerebroventricular dosing” value was “caused robust seizures”. Turning to `CCN(CC)CCNC(=O)c1c(C)[nH]c(/C=C2\C(=O)Nc3ccc(F)cc32)c1C` [Sunitinib], the half-life in data set [3] worked out at 27 min. Regarding `CN1CC[C@]23c4c5ccc(O)c4O[C@H]2[C@@H](O)C=C[C@H]3[C@H]1C5` [morphine], the breath rate entry in data set [4] is “showed respiratory depression”. Further, the locomotion result in data set [5] was “significant increase in locomotion above baseline”.

For orientation: half-life means how long it takes for the measured level to halve. Higher therefore signals slow decline.
